Results reported in patent US10086039B2, “Lamin A, an activator of longevity/anti-aging SIRT1 protein” (THE UNIVERSITY OF HONG KONG, priority 2012, dated 2018).
Each block holds one molecule with its values, some of them ahead of it.

Key:
[1] = tested on: Zmpste24−/− HSCs; test: ROS level in freshly isolated HSCs (DCF-DA, FACS); format: in vivo, mouse; settings: NAC 1 mg/ml in drinking water; elevated in Zmpste24−/− HSCs
Experimental: (§1) Zmpste24^−/− mice have been described previously (Pendas et al., 2002). Mouse experimentation was performed in accordance with the guidelines of the Committee on the Use of Live Animals in Teaching and Research (CULATR) at the University of Hong Kong. New-born Zmpste24^−/− mice and wild-type controls were fed with resveratrol (20 μg/ml) or N-acetyl Cysteine (1 mg/ml) in drinking water. The survival of resveratrol-treated, NAC-treated, or vehicle-treated Zmpste24^−/− mice was recorded and their body weight was monitored weekly. The trabecular bone organization and bone mineral density were determined by micro-CT. The survival rate was analyzed by Kaplan-Meier method and statistical comparison was performed by Log-rank (Mantel-Cox) Test.
To purify HSCs, red blood cells were lysed using NH4Cl before surface-marker staining, and HSCs were then sorted with a BD FACSVantage SE. Sorted HSCs were incubated with 5 μM DCF-DA at 37° C. for 30 min and analyzed by FACS at 488-nm excitation and 525-nm emission to determine the ROS level.

[2] = tested on: Zmpste24−/− mice; test: Survival and body weight of Zmpste24−/− mice treated via drinking water; format: in vivo, mouse; settings: NAC 1 mg/ml in drinking water
Experimental: as §1
Briefly, resveratrol was supplemented at a concentration of 20 μg/ml in drinking water. Four months after treatment, BMSCs were collected for examination and comparison between resveratrol-treated and vehicle-treated Zmpste24^−/− mice.

[3] = tested on: Zmpste24−/− mice; test: HSC population in bone marrow of treated Zmpste24−/− mice (FACS); format: in vivo, mouse; settings: NAC 1 mg/ml in drinking water
Experimental: as §1, with “Zmpste24^-/-” for “Zmpste24^−/−”, “([…]” for “(Pendas”, “Test. To analyze hematopoietic stem cells, mononucleated cells were collected by flushing femurs and tibias with staining medium (HBSS supplemented with 2% FBS) and stained with biotin-coupled lineage markers, Biotin-Flt3, PE-Sca-1, APC-c-Kit, and then SAv-PerCP. FACS profile analyses were performed using a BD FACSCalibur.” for “Test.”

[4] = tested on: Zmpste24−/− mice; test: BMSC colony-forming efficiency after in vivo treatment of Zmpste24−/− mice; design: species or system mouse; settings: NAC 1 mg/ml in drinking water
Experimental: as §1
Bone marrow stromal cells were isolated and cultured according to modified protocol (Enumeration and Expansion of Mouse Mesenchymal Progenitor Cells Using MESENCUILT®, Stemcell Technologies, Canada). Briefly, bone marrow cells were flushed out from femurs and tibias with α-MEM (Invitrogen, Carlsbad, Calif., USA) supplemented with 20% FBS, and plated in petri dishes. Non-adherent cells were removed on day 3 and medium was replaced every 3 days. […] Colonies containing more than 50 cells were counted. BMSC colony forming efficiency was calculated as number of colonies formed by […] bone marrow nucleated cells. […]

[5] = molecular target: T1, SIRT1 (Homo sapiens, UniProt Q96EB6); settings: Beher 2009; Dai 2010; Pacholec 2010; cited from earlier work
T1 sequence (Q96EB6 1-747): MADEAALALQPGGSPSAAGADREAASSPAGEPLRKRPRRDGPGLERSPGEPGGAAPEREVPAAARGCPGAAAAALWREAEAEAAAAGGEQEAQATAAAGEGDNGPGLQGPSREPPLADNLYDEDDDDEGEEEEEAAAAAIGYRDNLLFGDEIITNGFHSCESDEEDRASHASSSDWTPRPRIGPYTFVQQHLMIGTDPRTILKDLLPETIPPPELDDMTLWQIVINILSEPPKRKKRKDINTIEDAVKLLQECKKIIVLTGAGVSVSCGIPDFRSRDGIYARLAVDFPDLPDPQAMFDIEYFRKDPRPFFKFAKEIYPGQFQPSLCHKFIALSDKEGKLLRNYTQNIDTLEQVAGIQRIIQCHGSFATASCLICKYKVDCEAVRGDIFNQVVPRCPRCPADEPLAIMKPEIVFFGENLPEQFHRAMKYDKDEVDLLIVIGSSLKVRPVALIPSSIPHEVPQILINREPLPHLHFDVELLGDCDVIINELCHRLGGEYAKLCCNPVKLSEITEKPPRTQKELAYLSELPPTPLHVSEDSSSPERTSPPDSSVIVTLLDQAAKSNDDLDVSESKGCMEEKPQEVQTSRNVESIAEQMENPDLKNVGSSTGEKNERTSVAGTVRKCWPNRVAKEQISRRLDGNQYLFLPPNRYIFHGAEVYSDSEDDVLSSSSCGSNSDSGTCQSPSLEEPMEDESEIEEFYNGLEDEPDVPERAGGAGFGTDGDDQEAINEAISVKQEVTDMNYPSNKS

[6] = molecular target: T1, SIRT1; test: BIOMOL SIRT1 Fluorimetric Drug Discovery Kit (BSDK) deacetylase assay on fluorophore-conjugated acetyl p53 peptide; format: biochemical; design: purchased Biomol (Hamburg, Germany)
Experimental: (§2) SIRT1 deacetylation assay on fluorophore-conjugated synthetic p53 peptide was performed with SIRT1 Fluorimetric Drug Discovery Kit (Biomol, Hamburg, Germany) according to the manufactory's instruction. Cells were fractionated as described above except that protease inhibitors were NOT included and the nuclear matrix fraction was suspended into the assay buffer provided by the supplier. Different cell fractions or recombinant human lamin A (rhLamin A, Diatheva, Italy) were added in the reaction mix of SIRT1 Fluorimetric Drug Discovery Kit, incubated for 20 min at 37° C., and then the reaction was stopped and fluorescent signal was detected. SIRT1 deacetylase activity on native target was assayed using SIRT1 assay Kit from Sigma (USA). Constructs encoding FLAG-p53 and HA-p300 were co-transfected into HEK293 cells; FLAG-p53 was immunoprecipitated by anti-FLAG M2 Agarose (Sigma) followed by elution with FLAG peptide (Sigma). Purified acetyl FLAG-p53 was incubated with recombinant human SIRT1 (rhSIRT1) and NAD+ for 30 min at 37° C., in the presence or absence of rhLamin A or resveratrol. The acetylation level of FLAG-p53 was determined by Western blotting with pan anti acetyl lysine antibodies.
To test this hypothesis, in vitro deacetylase activity of rhSIRT1 by a BIOMOL® SIRT1 Fluorimetric Drug Discovery Kit (BSDK) was quantified in the presence or absence of NM derived from wild-type or Zmpste24−/− BMSCs.
This Example further investigates whether lamin A acts as an activator of SIRT1. In mammalian cells, lysine acetyltransferase p300 and SIRT1 mediate the acetylation and deacetylation of p53 on residue K382 (Gu and Roeder, 1997). BSDK utilizes fluorophore-conjugated acetyl p53 peptide as target (see Materials and Methods).

[7] = molecular target: T1, SIRT1; test: SIRT1 deacetylation assay on native full-length acetyl FLAG-p53 (Western blotting, anti-acetyl lysine); format: biochemical; design: purchased Biomol (Hamburg, Germany)
Experimental: as §2
To further test the effect of rhLamin A on the native target of SIRT1, acetyl p53 was purified by anti-FLAG immunoprecipitation in HEK293 cells ectopically expressing FLAG-p53 and p300, and SIRT1 deacetylation assay was performed as described in Materials and Methods.

[8] = molecular target: T2, rhSIRT1 binding to rhLamin A (Homo sapiens, UniProt Q96EB6); test: Pull-down of rhSIRT1 with rhLamin A in test tube (anti-lamin A immunoprecipitation); settings: in a test tube
T2 construct: purchased Diatheva, Italy (rhLamin A)
T2 sequence (Q96EB6 1-747): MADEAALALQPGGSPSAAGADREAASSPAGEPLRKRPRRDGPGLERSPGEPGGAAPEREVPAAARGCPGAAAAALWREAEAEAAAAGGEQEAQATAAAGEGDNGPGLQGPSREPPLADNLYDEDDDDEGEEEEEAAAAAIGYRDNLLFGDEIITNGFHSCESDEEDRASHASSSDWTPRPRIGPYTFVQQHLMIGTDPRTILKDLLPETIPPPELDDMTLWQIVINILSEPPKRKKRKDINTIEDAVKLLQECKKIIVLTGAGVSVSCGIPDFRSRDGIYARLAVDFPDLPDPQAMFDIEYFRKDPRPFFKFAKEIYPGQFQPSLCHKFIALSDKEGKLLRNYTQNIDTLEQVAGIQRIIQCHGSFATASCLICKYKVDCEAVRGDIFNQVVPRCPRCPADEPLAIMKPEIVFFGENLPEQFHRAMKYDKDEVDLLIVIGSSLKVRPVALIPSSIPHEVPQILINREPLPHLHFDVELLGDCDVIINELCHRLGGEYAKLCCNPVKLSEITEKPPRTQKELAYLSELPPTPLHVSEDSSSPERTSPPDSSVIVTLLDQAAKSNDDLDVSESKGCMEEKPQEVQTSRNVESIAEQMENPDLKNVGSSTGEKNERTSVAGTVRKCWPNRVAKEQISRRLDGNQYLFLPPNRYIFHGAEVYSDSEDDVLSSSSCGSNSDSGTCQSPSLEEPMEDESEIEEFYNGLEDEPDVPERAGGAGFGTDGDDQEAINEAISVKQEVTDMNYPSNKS
T2 sequence (P02545 1-664 partner): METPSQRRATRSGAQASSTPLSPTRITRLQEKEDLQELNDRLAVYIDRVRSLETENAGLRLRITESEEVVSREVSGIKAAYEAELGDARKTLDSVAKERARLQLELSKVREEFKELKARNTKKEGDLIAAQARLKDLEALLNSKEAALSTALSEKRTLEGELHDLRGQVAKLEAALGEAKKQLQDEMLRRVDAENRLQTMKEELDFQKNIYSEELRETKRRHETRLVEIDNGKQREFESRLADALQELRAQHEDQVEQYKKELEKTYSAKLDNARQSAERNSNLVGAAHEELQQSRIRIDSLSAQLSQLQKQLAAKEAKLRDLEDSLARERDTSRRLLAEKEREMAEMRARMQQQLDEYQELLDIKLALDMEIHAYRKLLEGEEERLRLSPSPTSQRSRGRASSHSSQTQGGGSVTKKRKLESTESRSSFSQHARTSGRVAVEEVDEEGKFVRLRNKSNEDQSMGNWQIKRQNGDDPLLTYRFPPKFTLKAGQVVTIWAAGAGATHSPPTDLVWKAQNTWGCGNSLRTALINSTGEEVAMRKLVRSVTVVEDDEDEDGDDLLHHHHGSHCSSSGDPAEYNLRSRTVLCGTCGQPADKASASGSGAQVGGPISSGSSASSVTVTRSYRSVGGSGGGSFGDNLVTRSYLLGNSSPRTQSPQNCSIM
Experimental: For co-immunoprecipitation, cells were lysed into pre-chilled RIPA buffer containing 300 mM or 500 mM NaCl and protease inhibitors. Primary antibodies or appropriate control IgGs were added to the lysate and incubated for 2 h on a rocking platform at 4° C. before Agarose beads were added and incubated O/N. The beads were washed twice with RIPA buffer, resuspended into Laemmli buffer and boiled, and protein suspension was collected by centrifugation and stored for further analysis.
Consistently, ectopic EGFP-SIRT1 and DsRed-lamin A co-existed in the nuclear interior (FIG. 1D). This interaction seems specific to nuclear SIRT1 as neither cytoplasmic SIRT1 nor mitochondrial SIRT5 was detected in the anti GFP-lamin A immunoprecipitates (FIG. 6C). In addition, SIRT1 physically interacts with lamin A as recombinant human SIRT1 (rhSIRT1) was pulled down by recombinant human lamin A (rhLamin A) in a test tube (FIG. 1E).

Molecule: CC(=O)N[C@@H](CS)C(=O)O [N-acetyl Cysteine]
ROS level in HSCs [1]: rescued ROS level
lifespan [2]: extended lifespan to a similar extent as resveratrol did
decline in HSCs [3]: rescued
decline in BMSCs [4]: rescued

Molecule: O=C(Nc1ccccc1-c1cn2c(CN3CCNCC3)csc2n1)c1cnc2ccccc2n1 [SRT1720]
SIRT1 activation towards full-length native target proteins, including p53 and PGC-1α [5]: do not confer any SIRT1 activation

Lamin A-stimulated SIRT1 deacetylase activity ([6]; SIRT1 inhibitor added): completely abolished
Molecule: Cc1ccc(C(=O)Nc2ccc(S(=O)(=O)O)c3cc(S(=O)(=O)O)cc(S(=O)(=O)O)c23)cc1NC(=O)c1cccc(NC(=O)Nc2cccc(C(=O)Nc3cc(C(=O)Nc4ccc(S(=O)(=O)O)c5cc(S(=O)(=O)O)cc(S(=O)(=O)O)c45)ccc3C)c2)c1 [Suramin]

activating potential on SIRT1 towards full-length acetylated FLAG-p53 protein ([7]; compared with lamin A): much higher activating potential
activating potential on SIRT1 towards fluorophore-conjugated synthetic peptide (Ac-Arg-His-Lys-LysAc-AMC) ([6]; compared with lamin A): much higher activating potential
B1: LA-80: synthetic peptide of carboxyl 80 aa of lamin A (peptide)
peptide: GSHCSSSGDPAEYNLRSRTVLCGTCGQPADKASASGSGAQVGGPISSGSSASSVTVTRSYRSVGGSGGGSFGDNLVTRSY

decrease in FLAG-p53 acetylation level ([7]; rhLamin A-rhSIRT1 complex compared with rhSIRT1 only): around 20%
rhSIRT1 pulled down by rhLamin A [8]: pulled down
B2: rhLamin A: recombinant human lamin A (rhLamin A, Diatheva, Italy) (protein, listed as Homo sapiens)
chain: METPSQRRATRSGAQASSTPLSPTRITRLQEKEDLQELNDRLAVYIDRVRSLETENAGLRLRITESEEVVSREVSGIKAAYEAELGDARKTLDSVAKERARLQLELSKVREEFKELKARNTKKEGDLIAAQARLKDLEALLNSKEAALSTALSEKRTLEGELHDLRGQVAKLEAALGEAKKQLQDEMLRRVDAENRLQTMKEELDFQKNIYSEELRETKRRHETRLVEIDNGKQREFESRLADALQELRAQHEDQVEQYKKELEKTYSAKLDNARQSAERNSNLVGAAHEELQQSRIRIDSLSAQLSQLQKQLAAKEAKLRDLEDSLARERDTSRRLLAEKEREMAEMRARMQQQLDEYQELLDIKLALDMEIHAYRKLLEGEEERLRLSPSPTSQRSRGRASSHSSQTQGGGSVTKKRKLESTESRSSFSQHARTSGRVAVEEVDEEGKFVRLRNKSNEDQSMGNWQIKRQNGDDPLLTYRFPPKFTLKAGQVVTIWAAGAGATHSPPTDLVWKAQNTWGCGNSLRTALINSTGEEVAMRKLVRSVTVVEDDEDEDGDDLLHHHHGSHCSSSGDPAEYNLRSRTVLCGTCGQPADKASASGSGAQVGGPISSGSSASSVTVTRSYRSVGGSGGGSFGDNLVTRSYLLGNSSPRTQSPQNCSIM
deacetylase activity of rhSIRT1 on acetyl p53 peptide ([6]; in the presence of rhLamin A, molar ratio rhLamin A to rhSIRT1 0.5, 1.0, 2.0, 4.0): increased in a dose-dependent manner
